± gives the standard deviation of the averaged measurements.
How the values were obtained:
CELECOXIB = compound: Cc1ccc(-c2cc(C(F)(F)F)nn2-c2ccc(S(N)(=O)=O)cc2)cc1 [CELECOXIB]; assay: surviving fraction relative to DMSO-only wells; higher = less growth inhibition; details: exposure time: 5 days
How it was run: (§1)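 Viability was scored with CellTiter-Glo luminescence and normalised to the median of DMSO-only wells as surviving fraction. Beforehand, log-phase tumour cell lines were seeded at 250–500 cells per well in 384-well plates, allowed 24 hours, and exposed continuously for five days to inhibitors at 0.5, 1, 5, 10, 50, 100, 500 and 1000 nM. Only lines whose three screens gave replicate Pearson r >0.7 and median Z' >0.3 were kept.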

[1] = compound: CC(=O)NCC(=O)N1[C@@H]2CC[C@H]1c1ccc(Nc3ncc(C(F)(F)F)c(NC4CCC4)n3)cc12; assay: as above; details: exposure time: 5 days
How it was run: as §1

Question: HOS BONE was tested. Which surviving fraction (CELECOXIB; 0.5 nM) did it give?
Answer: Its surviving fraction is 1 ± 0.013.

Question: And the surviving fraction (CELECOXIB; 1 nM)?
Answer: The surviving fraction was 1.028 ± 0.0093.

Question: What about the surviving fraction (CELECOXIB; 5 nM) of the same test system?
Answer: The surviving fraction was 1.02 ± 0.012.

Question: What about the surviving fraction (CELECOXIB; 10 nM) of the same test system?
Answer: Its surviving fraction is 1.018 ± 0.0023.

Question: What about the surviving fraction (CELECOXIB; 50 nM) of the same test system?
Answer: The surviving fraction was 1.06 ± 0.028.

Question: And the surviving fraction (CELECOXIB; 100 nM)?
Answer: The surviving fraction was 1.08 ± 0.031.

Question: And the surviving fraction (CELECOXIB; 500 nM)?
Answer: Its surviving fraction is 1.06 ± 0.022.

Question: And the surviving fraction (CELECOXIB; 1000 nM)?
Answer: The surviving fraction was 1.024 ± 0.007.

Question: What about the surviving fraction ([1]; 0.5 nM) of the same test system?
Answer: The surviving fraction was 1.03 ± 0.013.

Question: What about the surviving fraction ([1]; 1 nM) of the same test system?
Answer: The surviving fraction was 1.013 ± 0.0087.

Question: What about the surviving fraction ([1]; 5 nM) of the same test system?
Answer: Its surviving fraction is 1.01 ± 0.025.

Question: And the surviving fraction ([1]; 10 nM)?
Answer: The surviving fraction was 1.006 ± 0.0098.

Question: And the surviving fraction ([1]; 50 nM)?
Answer: Its surviving fraction is 0.719 ± 0.025.

Question: And the surviving fraction ([1]; 100 nM)?
Answer: Its surviving fraction is 0.675 ± 0.025.

Question: And the surviving fraction ([1]; 500 nM)?
Answer: Its surviving fraction is 0.585 ± 0.03.

Question: And the surviving fraction ([1]; 1000 nM)?
Answer: The surviving fraction was 0.485 ± 0.012.

Question: With SCC47 HEADNECK as the test system, how does the surviving fraction (CELECOXIB; 0.5 nM) read?
Answer: The surviving fraction was 1.08 ± 0.089.

Question: And the surviving fraction (CELECOXIB; 1 nM)?
Answer: Its surviving fraction is 1.11 ± 0.092.

Question: And the surviving fraction (CELECOXIB; 5 nM)?
Answer: Its surviving fraction is 1.09 ± 0.096.

Question: And the surviving fraction (CELECOXIB; 10 nM)?
Answer: The surviving fraction was 1.12 ± 0.067.

Question: And the surviving fraction (CELECOXIB; 50 nM)?
Answer: The surviving fraction was 1.094 ± 0.0075.

Question: And the surviving fraction (CELECOXIB; 100 nM)?
Answer: Its surviving fraction is 1.1 ± 0.026.

Question: What about the surviving fraction (CELECOXIB; 500 nM) of the same test system?
Answer: Its surviving fraction is 1.1 ± 0.054.

Question: And the surviving fraction (CELECOXIB; 1000 nM)?
Answer: The surviving fraction was 1.11 ± 0.033.

Question: And the surviving fraction ([1]; 0.5 nM)?
Answer: Its surviving fraction is 0.82 ± 0.0084.

Question: And the surviving fraction ([1]; 1 nM)?
Answer: The surviving fraction was 0.815 ± 0.033.

Question: What about the surviving fraction ([1]; 5 nM) of the same test system?
Answer: The surviving fraction was 1.01 ± 0.099.

Question: And the surviving fraction ([1]; 10 nM)?
Answer: Its surviving fraction is 0.974 ± 0.1.

Question: And the surviving fraction ([1]; 50 nM)?
Answer: Its surviving fraction is 1.01 ± 0.086.

Question: And the surviving fraction ([1]; 100 nM)?
Answer: Its surviving fraction is 0.904 ± 0.058.

Question: And the surviving fraction ([1]; 500 nM)?
Answer: Its surviving fraction is 0.542 ± 0.02.

Question: What about the surviving fraction ([1]; 1000 nM) of the same test system?
Answer: Its surviving fraction is 0.521 ± 0.047.

Question: For CAL72 BONE, which surviving fraction (CELECOXIB; 0.5 nM) is on record?
Answer: Its surviving fraction is 1.03 ± 0.1.

Question: And the surviving fraction (CELECOXIB; 1 nM)?
Answer: Its surviving fraction is 1.04 ± 0.14.

Question: And the surviving fraction (CELECOXIB; 5 nM)?
Answer: Its surviving fraction is 1.05 ± 0.11.

Question: And the surviving fraction (CELECOXIB; 10 nM)?
Answer: The surviving fraction was 1.04 ± 0.046.

Question: And the surviving fraction (CELECOXIB; 50 nM)?
Answer: The surviving fraction was 1.06 ± 0.12.

Question: What about the surviving fraction (CELECOXIB; 100 nM) of the same test system?
Answer: Its surviving fraction is 1.08 ± 0.17.

Question: And the surviving fraction (CELECOXIB; 500 nM)?
Answer: The surviving fraction was 1.07 ± 0.13.

Question: And the surviving fraction (CELECOXIB; 1000 nM)?
Answer: Its surviving fraction is 1.09 ± 0.12.

Question: What about the surviving fraction ([1]; 0.5 nM) of the same test system?
Answer: Its surviving fraction is 1.06 ± 0.039.

Question: And the surviving fraction ([1]; 1 nM)?
Answer: The surviving fraction was 1.09 ± 0.051.

Question: What about the surviving fraction ([1]; 5 nM) of the same test system?
Answer: The surviving fraction was 1.12 ± 0.057.

Question: And the surviving fraction ([1]; 10 nM)?
Answer: Its surviving fraction is 1.04 ± 0.011.

Question: What about the surviving fraction ([1]; 50 nM) of the same test system?
Answer: The surviving fraction was 0.917 ± 0.032.

Question: And the surviving fraction ([1]; 100 nM)?
Answer: The surviving fraction was 0.846 ± 0.022.

Question: And the surviving fraction ([1]; 500 nM)?
Answer: The surviving fraction was 0.571 ± 0.025.

Question: And the surviving fraction ([1]; 1000 nM)?
Answer: The surviving fraction was 0.419 ± 0.026.

Question: Which results are given for VP229 BREAST?
Answer: surviving fraction (CELECOXIB; 0.5 nM): 1.15 ± 0.15; surviving fraction (CELECOXIB; 1 nM): 1.21 ± 0.19; surviving fraction (CELECOXIB; 5 nM): 1.21 ± 0.12; surviving fraction (CELECOXIB; 10 nM): 1.12 ± 0.13; surviving fraction (CELECOXIB; 50 nM): 1.15 ± 0.052; surviving fraction (CELECOXIB; 100 nM): 1.27 ± 0.03; surviving fraction (CELECOXIB; 500 nM): 1.25 ± 0.076; surviving fraction (CELECOXIB; 1000 nM): 1.4 ± 0.049; surviving fraction ([1]; 0.5 nM): 1.08 ± 0.051; surviving fraction ([1]; 1 nM): 1.1 ± 0.12; surviving fraction ([1]; 5 nM): 1.02 ± 0.15; surviving fraction ([1]; 10 nM): 0.999 ± 0.04; surviving fraction ([1]; 50 nM): 0.917 ± 0.046; surviving fraction ([1]; 100 nM): 0.548 ± 0.016; surviving fraction ([1]; 500 nM): 0.624 ± 0.031; surviving fraction ([1]; 1000 nM): 0.556 ± 0.057

Question: With HUO3N1 BONE as the test system, how does the surviving fraction (CELECOXIB; 0.5 nM) read?
Answer: Its surviving fraction is 1.03 ± 0.04.

Question: And the surviving fraction (CELECOXIB; 1 nM)?
Answer: The surviving fraction was 0.998 ± 0.039.

Question: What about the surviving fraction (CELECOXIB; 5 nM) of the same test system?
Answer: Its surviving fraction is 1.06 ± 0.057.

Question: What about the surviving fraction (CELECOXIB; 10 nM) of the same test system?
Answer: The surviving fraction was 1.08 ± 0.061.

Question: And the surviving fraction (CELECOXIB; 50 nM)?
Answer: Its surviving fraction is 1.12 ± 0.017.

Question: And the surviving fraction (CELECOXIB; 100 nM)?
Answer: The surviving fraction was 1.02 ± 0.039.

Question: And the surviving fraction (CELECOXIB; 500 nM)?
Answer: The surviving fraction was 1 ± 0.023.

Question: And the surviving fraction (CELECOXIB; 1000 nM)?
Answer: The surviving fraction was 0.974 ± 0.036.

Question: What about the surviving fraction ([1]; 0.5 nM) of the same test system?
Answer: The surviving fraction was 1.01 ± 0.064.

Question: And the surviving fraction ([1]; 1 nM)?
Answer: Its surviving fraction is 0.997 ± 0.054.

Question: And the surviving fraction ([1]; 5 nM)?
Answer: The surviving fraction was 1.01 ± 0.021.

Question: And the surviving fraction ([1]; 10 nM)?
Answer: The surviving fraction was 1.02 ± 0.036.

Question: What about the surviving fraction ([1]; 50 nM) of the same test system?
Answer: The surviving fraction was 1.03 ± 0.076.

Question: What about the surviving fraction ([1]; 100 nM) of the same test system?
Answer: Its surviving fraction is 0.972 ± 0.036.

Question: And the surviving fraction ([1]; 500 nM)?
Answer: Its surviving fraction is 0.737 ± 0.064.

Question: What about the surviving fraction ([1]; 1000 nM) of the same test system?
Answer: Its surviving fraction is 0.533 ± 0.037.

Question: H23 LUNG was tested. Which surviving fraction (CELECOXIB; 0.5 nM) did it give?
Answer: Its surviving fraction is 1.01 ± 0.018.

Question: And the surviving fraction (CELECOXIB; 1 nM)?
Answer: Its surviving fraction is 1.04 ± 0.062.

Question: What about the surviving fraction (CELECOXIB; 5 nM) of the same test system?
Answer: Its surviving fraction is 1.04 ± 0.021.

Question: And the surviving fraction (CELECOXIB; 10 nM)?
Answer: Its surviving fraction is 1.03 ± 0.05.

Question: What about the surviving fraction (CELECOXIB; 50 nM) of the same test system?
Answer: The surviving fraction was 1.07 ± 0.05.

Question: What about the surviving fraction (CELECOXIB; 100 nM) of the same test system?
Answer: The surviving fraction was 1.18 ± 0.067.

Question: And the surviving fraction (CELECOXIB; 500 nM)?
Answer: Its surviving fraction is 1.18 ± 0.015.

Question: And the surviving fraction (CELECOXIB; 1000 nM)?
Answer: Its surviving fraction is 1.16 ± 0.074.

Question: What about the surviving fraction ([1]; 0.5 nM) of the same test system?
Answer: Its surviving fraction is 0.971 ± 0.037.

Question: And the surviving fraction ([1]; 1 nM)?
Answer: The surviving fraction was 0.95 ± 0.015.

Question: And the surviving fraction ([1]; 5 nM)?
Answer: Its surviving fraction is 0.936 ± 0.037.

Question: And the surviving fraction ([1]; 10 nM)?
Answer: The surviving fraction was 0.931 ± 0.029.

Question: What about the surviving fraction ([1]; 50 nM) of the same test system?
Answer: Its surviving fraction is 0.949 ± 0.04.

Question: And the surviving fraction ([1]; 100 nM)?
Answer: Its surviving fraction is 0.69 ± 0.051.

Question: And the surviving fraction ([1]; 500 nM)?
Answer: Its surviving fraction is 0.471 ± 0.0074.

Question: And the surviving fraction ([1]; 1000 nM)?
Answer: Its surviving fraction is 0.421 ± 0.014.

Question: Which results are given for MDAMB436 BREAST?
Answer: surviving fraction (CELECOXIB; 0.5 nM): 0.986 ± 0.11; surviving fraction (CELECOXIB; 1 nM): 1.09 ± 0.23; surviving fraction (CELECOXIB; 5 nM): 1.03 ± 0.085; surviving fraction (CELECOXIB; 10 nM): 1.04 ± 0.11; surviving fraction (CELECOXIB; 50 nM): 1.03 ± 0.11; surviving fraction (CELECOXIB; 100 nM): 1.03 ± 0.14; surviving fraction (CELECOXIB; 500 nM): 0.992 ± 0.076; surviving fraction (CELECOXIB; 1000 nM): 0.992 ± 0.11; surviving fraction ([1]; 0.5 nM): 0.912 ± 0.039; surviving fraction ([1]; 1 nM): 0.875 ± 0.053; surviving fraction ([1]; 5 nM): 0.908 ± 0.033; surviving fraction ([1]; 10 nM): 0.882 ± 0.12; surviving fraction ([1]; 50 nM): 0.937 ± 0.1; surviving fraction ([1]; 100 nM): 0.762 ± 0.079; surviving fraction ([1]; 500 nM): 0.435 ± 0.021; surviving fraction ([1]; 1000 nM): 0.391 ± 0.03

— the supplement of paper PMC6045584
